Drawing on BindingDB's records for PubMed 9694962 (Memorial Sloan-Kettering Cancer Center, 1998), this text covers Ki for twelve compounds.

Assay [1] addresses Mu-type opioid receptor (Mus musculus, UniProt P42866).
For assay [2], the target named is Mu-type opioid receptor (Bos taurus, UniProt P79350).

“And” between values parts separate entries of the source, which are not always exact repeats. Identical values can stand only once. Where a SMILES comes first, the peptide text is derived from it.

Sequence of Mu-type opioid receptor (Bos taurus, UniProt P79350) (P79350 whole entry): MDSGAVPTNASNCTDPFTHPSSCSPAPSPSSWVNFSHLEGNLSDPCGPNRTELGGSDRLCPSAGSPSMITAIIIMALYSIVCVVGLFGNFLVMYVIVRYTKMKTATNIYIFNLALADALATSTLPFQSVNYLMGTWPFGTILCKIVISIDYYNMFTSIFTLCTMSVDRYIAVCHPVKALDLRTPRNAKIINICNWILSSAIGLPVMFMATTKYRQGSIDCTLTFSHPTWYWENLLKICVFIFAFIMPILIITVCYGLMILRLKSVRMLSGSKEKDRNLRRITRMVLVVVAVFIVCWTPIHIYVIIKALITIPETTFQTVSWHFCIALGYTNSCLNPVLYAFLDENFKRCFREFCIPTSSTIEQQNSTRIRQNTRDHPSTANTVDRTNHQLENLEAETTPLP
Sequence of Mu-type opioid receptor (Mus musculus, UniProt P42866) (P42866 whole entry): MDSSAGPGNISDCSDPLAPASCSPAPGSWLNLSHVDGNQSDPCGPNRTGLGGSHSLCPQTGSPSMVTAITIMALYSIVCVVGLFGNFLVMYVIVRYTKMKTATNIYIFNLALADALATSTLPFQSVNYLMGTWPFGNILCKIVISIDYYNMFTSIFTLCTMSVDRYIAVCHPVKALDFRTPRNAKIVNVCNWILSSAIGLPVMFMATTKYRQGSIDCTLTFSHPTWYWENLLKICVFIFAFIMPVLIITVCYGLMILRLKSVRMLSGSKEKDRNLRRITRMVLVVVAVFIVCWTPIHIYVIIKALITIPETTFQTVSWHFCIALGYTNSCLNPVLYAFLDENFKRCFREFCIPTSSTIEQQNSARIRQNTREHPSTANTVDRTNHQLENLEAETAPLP

The Ki is a dissociation constant, usually derived from enzyme kinetics or from competition with a known ligand. Regarding `C=CCN1CC[C@]23CCCCC2[C@H]1Cc1ccc(O)cc13` (some centres not stated) [Levallorphan], in assay [1], the Ki was 0.97 nM and 0.96 nM.

Regarding `COc1ccc2c3c1O[C@H]1C(=O)CC[C@@]4(O)[C@@H](C2)N(CC2CC2)CC[C@]314`, the inhibition constant Ki in assay [1] is 20.3 nM and 21.2 nM.

Turning to `NC(=O)[C@H](Cc1ccccc1)NC(=O)[C@H](Cc1c[nH]c2ccccc12)NC(=O)[C@@H]1CCCN1C(=O)[C@@H](N)Cc1ccc(O)cc1` [Endomorphin 1], the Ki in assay [2] was 0.67 nM and 3.2 nM.

On to `CSCC[C@H](NC(=O)[C@H](Cc1ccccc1)NC(=O)CNC(=O)CNC(=O)[C@@H](N)Cc1ccc(O)cc1)C(=O)N[C@@H](CCCNC(=N)N)C(=O)N[C@@H](Cc1ccccc1)C(=O)O` [enkephalin-Met, Arg(6)-Phe(7)] (H-YGGFMRF-OH), for which, in assay [1], the inhibition constant (Ki) is 30 nM and 13.4 nM.

With `CC[C@H](C)[C@H](NC(=O)[C@H](C)NC(=O)[C@H](CC(N)=O)NC(=O)[C@H](CCCCN)NC(=O)[C@H](Cc1ccccc1)NC(=O)[C@H](CC(C)C)NC(=O)[C@@H](NC(=O)[C@@H](NC(=O)[C@H](CC(C)C)NC(=O)[C@@H]1CCCN1C(=O)[C@@H](NC(=O)[C@H](CCC(N)=O)NC(=O)[C@H](CO)NC(=O)[C@H](CCCCN)NC(=O)[C@H](CCC(=O)O)NC(=O)[C@H](CO)NC(=O)[C@@H](NC(=O)[C@H](CCSC)NC(=O)[C@H](Cc1ccccc1)NC(=O)CNC(=O)CNC(=O)[C@@H](N)Cc1ccc(O)cc1)[C@@H](C)O)[C@@H](C)O)C(C)C)[C@@H](C)O)C(=O)N[C@H](C(=O)N[C@@H](CCCCN)C(=O)N[C@@H](CC(N)=O)C(=O)N[C@@H](C)C(=O)N[C@@H](Cc1cnc[nH]1)C(=O)N[C@@H](CCCCN)C(=O)N[C@@H](CCCCN)C(=O)NCC(=O)N[C@@H](CCC(N)=O)C(=O)O)C(C)C` [Beta-Endorphin] (H-YGGFMTSEKSQTPLVTLFKNAIVKNAHKKGQ-OH), the Ki in assay [1] is 10.9 nM and 3.22 nM.

As for `CC[C@H](C)[C@H](NC(=O)[C@H](CCCNC(=N)N)NC(=O)[C@H](CCCNC(=N)N)NC(=O)[C@H](CC(C)C)NC(=O)[C@H](Cc1ccccc1)NC(=O)CNC(=O)CNC(=O)[C@@H](N)Cc1ccc(O)cc1)C(=O)N[C@@H](CCCNC(=N)N)C(=O)N1CCC[C@H]1C(=O)N[C@@H](CCCCN)C(=O)N[C@@H](CC(C)C)C(=O)N[C@@H](CCCCN)C(=O)N[C@@H](Cc1c[nH]c2ccccc12)C(=O)N[C@@H](CC(=O)O)C(=O)N[C@@H](CC(N)=O)C(=O)N[C@@H](CCC(N)=O)C(=O)O` [Dynorphin A (1-17)], the Ki in assay [1] was 12.8 nM and 3.32 nM.

With `C=CCN1CCC23c4c5ccc(O)c4O[C@@H]2C(=NNC(=O)c2ccccc2)CCC3(O)C1C5` (some centres not stated), the inhibition constant (Ki) in assay [1] is 0.2 nM and 0.12 nM.

With `CC(C)C[C@H](NC(=O)[C@H](Cc1ccccc1)NC(=O)CNC(=O)[C@@H](CO)NC(=O)[C@@H](N)Cc1ccc(O)cc1)C(=O)N[C@H](C(=O)O)[C@@H](C)O` [DSLET-OH], in assay [1], the inhibition constant (Ki) was 20 nM and 10.8 nM.

On to `NC(=O)CNC(=O)[C@H](Cc1c[nH]c2ccccc12)NC(=O)[C@@H]1CCCN1C(=O)[C@@H](N)Cc1ccc(O)cc1` [CAS_132632] (H-YPWG-NH2), for which the Ki in assay [1] is 18 nM and 44.7 nM.

As to `CN1CCC23c4c5ccc(O)c4O[C@H]2[C@@H](OC2OC(C(=O)O)C(O)C(O)C2O)C=C[C@H]3[C@H]1C5` (some centres not stated) [Morphine 6-glucuronide], the Ki in assay [1] was 2.35 nM and 2.47 nM.

Take `NC(=O)[C@H](Cc1ccccc1)NC(=O)[C@H](Cc1ccccc1)NC(=O)[C@@H]1CCCN1C(=O)[C@@H](N)Cc1ccc(O)cc1`: the Ki in assay [2] was 0.43 nM and 4 nM.

`CC(C)C[C@H](NC(=O)[C@H](Cc1ccccc1)NC(=O)CNC(=O)CNC(=O)[C@@H](N)Cc1ccc(O)cc1)C(=O)N[C@@H](CCCN=C(N)N)C(=O)N[C@@H](CCCN=C(N)N)C(=O)N[C@@H](CCC(N)=O)C(=O)N[C@@H](Cc1ccccc1)C(=O)N[C@@H](CCCCN)C(=O)N[C@H](C(=O)N[C@H](C(=O)N[C@H](C(=O)O)[C@@H](C)O)C(C)C)C(C)C` [(Dynorphin)2-[2-(2-{2-[2-(2-{2-[2-Amino-3-(4-hydroxy-phenyl)-propionylamino]-acetylamino}-acetylamino)-3-phenyl-propionylamino]-4-methyl-pentanoylamino}-5-guanidino-pentanoylamino)-5-guanidino-pentanoylamino]-3-methyl-pentanoic acid]: the Ki in assay [1] was 39.8 nM and 11.4 nM.
